# In US20240252508A1, “Novel glucose uptake inhibitors for use in the treatment of cancer” (NOVELYEAST BV, priority 2021, published 2024):
# Experiments:
# human GLUT4^V85M = molecular target: T1, human GLUT4^V85M (Homo sapiens, UniProt P14672, V85M); test: Glucose uptake by GLUT4^V85M expressed in hxt^0 erg4Δ (EBY.VW4000) yeast; assay type: cell-based; details: 2.5 mM glucose
# T1 construct: HA (C); expressed in transfected cells; host or cells: S. cerevisiae EBY.VW4000 (hxt0 erg4Δ), plasmid pFL38Kan-GLUT4^V85M (TEF1 promoter, low-copy)
# T1 sequence (P14672 1-509 V85M): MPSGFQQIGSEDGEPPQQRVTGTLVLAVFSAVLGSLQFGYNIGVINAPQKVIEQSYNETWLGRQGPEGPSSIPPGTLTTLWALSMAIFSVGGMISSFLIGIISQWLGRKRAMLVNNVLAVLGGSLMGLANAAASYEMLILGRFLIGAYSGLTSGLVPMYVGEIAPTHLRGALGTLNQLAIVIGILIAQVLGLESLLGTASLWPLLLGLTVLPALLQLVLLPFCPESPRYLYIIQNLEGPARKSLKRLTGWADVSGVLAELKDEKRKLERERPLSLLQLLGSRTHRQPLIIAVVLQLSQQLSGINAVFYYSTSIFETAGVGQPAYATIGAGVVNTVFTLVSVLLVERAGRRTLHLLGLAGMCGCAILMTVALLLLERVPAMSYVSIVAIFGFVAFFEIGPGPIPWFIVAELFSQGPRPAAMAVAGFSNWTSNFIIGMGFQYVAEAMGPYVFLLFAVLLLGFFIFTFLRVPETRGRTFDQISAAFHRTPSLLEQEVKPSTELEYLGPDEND
# Description: To assess whether WBC-A could inhibit glucose transport activity of the GLUT carriers, we expressed human GLUT1^V69M and GLUT4^V85M in a hxt^0 gal2Δ (RE700A) and hxt^0 erg4Δ (EBY.VW4000) strain, respectively. These strains are both deficient in glucose uptake due to absence of all active glucose transporters. For functional GLUT expression in yeast, specific mutations had to be introduced in both sequences, whereas for GLUT4, an additional ERG4 gene deletion was required^64,65,66.
# Zero-trans uptake of radioactively labeled [U-^14C]glucose, [U-^14C]fructose or [U-^14C]galactose by S. cerevisiae cells was determined in accordance with previous studies^44,66. Cells were grown on different carbon sources depending on the experiment. For measuring glucose uptake activity in the tps1Δ and tps1Δ hxtA strains (FIG. 1b,c), cells were grown on YP medium containing 3% glycerol (measurement of 10s). Typically, for compound characterization and kinetic studies in wild type and tps1Δ strains, cells were (pre)grown on Complete Synthetic medium supplemented with 2% galactose (measurement of 10s). […] The loaded filter was transferred to a scintillation vial containing 3 mL liquid scintillation cocktail (Ultima-Flo M, Perkin Elmer) and counted using the Hidex 300 SL. […]
# tps1Δ cells = test: Glu6P and Fru1,6bisP levels after glucose addition to tps1Δ cells; assay type: cell-based, S. cerevisiae
# Method: For measuring metabolite levels, cells were typically grown in Complete Synthetic medium. […] However, when comparing the effect of Warbicins on metabolite profiles of wild type and tps1Δ strains (FIG. 2f-k), cells were grown on 2% galactose. When grown to exponential phase, cells were harvested by centrifugation and washed twice with ice-cold 25 mM 2-(N-Morpholino)ethanesulfonic acid (MES) buffer, pH 6. Cells were suspended in Complete Synthetic medium without sugar at a concentration of 75 mg (wet weight)/mL followed by a temperature equilibration at 30° C. in a shaking water bath for 30 min. Depending on the experiment, a final concentration of 2.5 mM, 7.5 mM or 10 mM glucose was added to the cell suspension. Compounds were added 10 min prior to glucose addition. […]
# Through endpoint measurement of the absorbance of NADH or NADPH at 340 nm, metabolite concentrations were calculated by applying Lambert's Law. Different metabolites were measured through the use of coupled enzymatic reactions. […] Depending on the measured metabolite, different co-factors and auxiliary enzymes were added. For measuring glucose-6-phosphate, 0.8 mg/ml NADP^+ was added to the assay buffer after which the baseline absorbance was measured. […] After stabilization of the OD340 spectra, ATP concentrations were measured by additionally adding 10 mM MgCl2 and 0.5 mM glucose to the assay buffer. […]
smiles,measurement,setting,value
Cc1nc(Sc2nnc3n2CCCCC3)c2c(-c3cccs3)csc2n1 [WBC-A],IC50,human GLUT4^V85M,20.9 µM
same,"Glu6P and Fru1,6bisP hyperaccumulation after addition of 2.5 mM glucose",tps1Δ cells,"concentration-dependent gradual drop in Glu6P and a more precipitous drop in Fru1,6bisP"
